What was measured:
[1] = test system: chronically injured livers; assay: CCl4-induced liver fibrosis; format: in vivo, mice; conditions: 10 mg/kg subcutaneously per day starting one day prior
Method: Eight to twelve weeks-old C57BL/6 mice were intraperitoneally injected with 0.25 (first injection), 0.5 (second injection) and 1 mL/kg body weight CCI4 (25% v/v dissolved in sterile oil) twice a week (63). Mice were sacrificed after 42 days for further analyses. Mice were injected subcutaneously with 10 mg/kg body weight per day GPI-1046 (Santa Cruz Biotechnology, Dallas, USA) in DMSO once daily starting one day prior of surgery, control mice received equivalent volume of vehicle DMSO. For oral administration, GPI-1046 stock solution was diluted in glucose-water (5%) and orally applied on the basis of an average drinking volume of 3 mL and a body weight of 20 g per mouse. Three days after challenging with UUO, mice were treated orally with either vehicle buffer glucose (5%) or 30 mg/kg body weight per day GPI-1046, respectively. […] For morphometric analysis of interstitial fibrosis, fibrotic areas were assessed by using cellSens (Olympus, Tokyo, Japan) software. Ten visual fields were selected randomly for each MTS stained section at 200× magnification and the relative interstitial fibrotic area was evaluated by using a 10 mm2 graticule. Tubular damage was analysed after PAS stain and graded according to a semi-quantitative score of 0 to 3 (0: normal, 1: mild, 2: moderate, 3: severe) at 400× magnification in a total number of 100 tubules per section (158). […]

[2] = test system: human proximal tubular epithelial cells (HK2 cells); assay: Human TEC cultures (HK2 cells): ARNT/ALK3 and pSmad1/5/8; format: cell-based; conditions: picomolar FK506
Method: HK-2 (ATTC, Manassas, USA) are immortalized proximal tubule epithelial cells derived from normal adult human kidney. The murine proximal tubular epithelial cell line MCT was generated from the renal cortex of SJL mice (75). All cells were routinely tested negative for the presence of mycoplasma contamination. None of the cell lines used in this manuscript is listed in the ICLAC and NCBI Biosample database of misidentified cell lines. Cells were cultured in Dulbecco's modified Eagle's (DMEM, Gibco, Carlsbad, USA) medium supplemented with 100 µg/mL penicillin, 100 µg/mL streptomycin and 10% heat-inactivated fetal bovine serum (FBS, Sigma, St. Louis, USA) at 37° C. in 5% CO2. For RNA extractions, cells were seeded in 6 well culture plates at 10^5 cells per well in antibiotic free standard growth medium. […] Cells were harvested for further analysis 6 hours after incubation. To examine de novo protein syntheses, cells were again plated in 6 well culture plates as initially described and then pre-treated with the translation blocker Cycloheximide (CHX, 10 μg/mL, Sigma, St. Louis, USA). After one hour of incubation, 200 pM FK506 was applied for additional 6 hours. […] The relative expression levels were calculated using the equation 2^−ddCt.

TEC cultures = assay: RT2 Profiler PCR arrays (transcription factor, hypoxia, drug metabolism) in TECs; format: cell-based
Method: To compare qPCR-validated cDNA samples after FK506 treatment and DMSO control, gene expression profiling was performed using commercially available plates (PAHS-075Z/PAMM-002Z/PAMM032Z, SABiosciences, Qiagen, Hilden, Germany). HK-2 cells were plated in 6 well culture plates as previously described and stimulated with 150 ng/mL FK506, MCT cells with 200 pM FK506. After 6 hours, cells were dissolved and RNA was isolated, digested and reverse transcripted. The 25 ng cDNA equivalent of total RNA was added to the reaction mixture containing diluted 2× RT^2 SYBR Green ROX qPCR Mastermix (Qiagen, Hilden, Germany) in a final volume of 25 μL for each well of the RT2 Profiler PCR. PCR reactions were performed under recommended thermal cycling conditions (10 min at 95° C., 15 s at 95° C., 1 min at 60° C. for 40 cycles). To verify PCR specificity, dissociation curve analysis was generated. Relative levels of mRNA expression were normalized in all the samples with expression levels of included housekeeping genes, and data analysis was done using an web-based analysis software provided by SABiosciences. Transcription factor binding sites within the ALK3 proximal promoter was performed 5000 basepairs relative to transcriptional start site using […] database (98).

| Structure (SMILES) | ALK3-dependent canonical BMP signaling responses [1] | protection from fibrogenesis [1] | ARNT and ALK3 transcription [2] | nuclear pSmad1/5/8 [2] | induction of transcriptional factors AR, ARNT, CEPB, CREB1, GATA3 and MAX (array) (TEC cultures; TEC cultures upon FK506 exposure) | pathways involved in hypoxic signaling or drug metabolism (mRNA expression arrays) (TEC cultures; TECs exposed to FK506) |
| --- | --- | --- | --- | --- | --- | --- |
| CCC(C)(C)C(=O)C(=O)N1CCC[C@H]1C(=O)OCCCc1cccnc1 [GPI-1046, 3-(3-pyridyl)-1-propyl-(2S)-1-(3,3-dimethyl-1,2-dioxopentyl)-2-pyrrolidinedine carboxylate] | equally effective | equally effective |  |  |  |  |
| C=CC[C@@H]1/C=C(\C)C[C@H](C)C[C@H](OC)[C@H]2O[C@@](O)(C(=O)C(=O)N3CCCC[C@H]3C(=O)O[C@H](/C(C)=C/[C@@H]3CC[C@@H](O)[C@H](OC)C3)[C@H](C)[C@@H](O)CC1=O)[C@H](C)C[C@@H]2OC [FK506, tacrolimus] |  |  | equally induced | nuclear accumulation of pSmad1/5/8 | at least 2 fold | did not markedly induce |

Source: US12440479B2, “Prevention or treatment of chronic organ injury” (GEORG-AUGUST-UNIVERSITAET GOETTINGEN, STIFTUNG …, priority 2018, dated 2025)
